Assay results from patent US20190262266A1, “FORMULATIONS” (OXY SOLUTIONS AS, priority 2016, published 2019).
“Also recorded” adds a separate entry of the source. Like-named read-outs stand apart in the source and are kept apart here.

Experiments:
[1] = system: human skin fibroblasts; assay: Reactive oxygen species (ROS) production in human skin fibroblasts (DCFDA); conditions: 30 min; for ROS, relative fluorescence (×10^3): 5% FBS; for ROS production compared to control: DO 21-35 mg/L, 5% FBS (5% or 10% FBS), control 8.6 mg/L
Protocol: (§1) Oxygenated medium was prepared using powder cell medium, diluted with Oxy Water prepared according to Example 5. The mixing ratio depended on the desired concentration of dissolved oxygen in the final cell medium. DMEM or DMEM medium without phenol red was used (Sigma Aldrich). The medium was supplied with additives and FBS. The phenol red free cell medium was used for the ROS experiment to avoid disturbance of the fluorescent readings.
HSFs were seeded at a density of 2.5×10^4 cells/0.32 cm^2 and were grown to confluence overnight. The cells were stained with 20 uM DCFDA solution (2′,7′-dichlorofluorescin diacetate) (DCFDA Cellular ROS Detection Assay Kit, Abcam, Cambridge, UK) and incubated for 45 min at 37° C. protected from light exposure. Control cell medium (5% FBS, dissolved oxygen: 8.6 mg/L), oxygenated cell medium (5% FBS, dissolved oxygen: 21.6, 26.5, 34.9 mg/L) and positive control (500 μM H2O2, 5% FBS, dissolved oxygen: 8.6 mg/L) were added. The cells were incubated at room temperature. The fluorescence was read with an FLx800 plate reader (BioTek, Winooski, USA) with excitation wavelength at 485 nm and emission wavelength 520 nm, 30 min after adding the treatments. The values were corrected for blank readings and presented as relative fluorescence (×10^3). The experiments were repeated using 10% FBS.

[2] = system: human skin fibroblasts
Protocol: as §1

[3] = system: human skin fibroblasts; conditions: DO up to 50 mg/L, DMEM w/1% FBS, control 11 mg/L; for cell viability / number of dead cells compared to control: 4 days; for proliferation compared to control: up to 4 days
Protocol: as §1
HSFs were seeded at a density of 5×10^4 cells/25 cm^2 and left overnight. The cells were treated with control cell medium (1% FBS, dissolved oxygen: 11 mg/L), oxygenated cell medium (1% FBS, dissolved oxygen: 23, 31, 41, 50 mg/L), or 10% FBS, dissolved oxygen: 10 mg/L. After stimulation, the cells were left at room temperature for 30 min, followed by incubation at 37° C. The treatment was repeated every 24 hours up to 4 days. On day 2, 3 and 4 the cells were harvested; the cell suspension was mixed with trypan blue and live cells were manually counted using a hemocytometer and dead cells were counted using a TC20 Automated cell counter (BioRad, USA). 1% Triton X was used as a positive control for cell death.

## O=O [dissolved oxygen]
[1]; 21.6 mg/L dissolved oxygen
  ROS, relative fluorescence (×10^3): 9.3±3.4
[1]; 26.5 mg/L dissolved oxygen
  ROS, relative fluorescence (×10^3): 15.2±4.5
[1]; 34.9 mg/L dissolved oxygen
  ROS, relative fluorescence (×10^3): 8.9±2.9
[1]
  ROS production compared to control: did not significantly change; also recorded: no significant increase
[1]; listed as DO
  ROS production compared to control: no significant differences
[2]; 33 mg/L DO, DMEM w/10% FBS, 4 h, re-stimulated at 1, 2 and 3 hours
  ATP levels: 113.1 nm ATP/10^5 cells
[2]; 33 mg/L dissolved oxygen, four hourly stimulations
  levels of ATP: 113.1±10.1 nM ATP/10^5 live cells
[3]
  cell viability / number of dead cells compared to control: nor did it change the level of cell viability
  proliferation compared to control: did not change cell proliferation
[3]; listed as DO
  cell viability / number of dead cells compared to control: did not significantly alter the number of dead cells
  proliferation compared to control: did not significantly alter the proliferation rate
